Values quoted from earlier work in patent publication US8524772B2, “Controlled release of N-acetylcysteine (NAC) for reduction of systemic and/or vascular inflammation” (Tiara Pharmaceuticals, Inc., priority 2008, dated 2013).

Assays:
[1] = test system: lipid loaded macrophages (foam cells)
LDL = conditions: in vitro

CC(=O)NC(CS)C(=O)O (stereo not drawn) [NAC, 2-acetamido-3-sulfanylpropanoic acid]
ability of foam cells to degrade vascular matrix [1]: reduce
oxidative modification of LDL (LDL): inhibited
secondary oxidation of LDL by previously oxidized LDL (LDL): markedly inhibited
